Data published in ChEMBL document CHEMBL1122781, “[(Aminomethyl)aryloxy]acetic acid esters. A new class of high-ceiling diuretics. 1. Effects of nitrogen and aromatic nuclear substitution” (J Med Chem, 1984).

Experiments:
Rattus norvegicus [1] = experiment: Oral dose necessary to produce excretion of 2 mequiv of Na+/kg in rat urine in a 4-hr period after oral administration; inactive; assay type: ADME, organism-based; conditions: in vivo
Rattus norvegicus [2] = experiment: Oral dose necessary to produce an excretion of 2 mequiv of Na+/kg in the rat urine in the 4-h period after peroral administration; assay type: ADME, organism-based; conditions: in vivo
Rattus norvegicus [3] = experiment: Percent change of arterial blood pressure in spontaneously hypertensive rats at the dose of 300 mg/kg (p.o.) after […] (control BP(mm Hg)=214); assay type: functional; conditions: route oral
Rattus norvegicus [4] = experiment: Percent change of arterial blood pressure in spontaneously hypertensive rats at the dose of 300 mg/kg (p.o.) after 24 h (control BP(mm Hg)=214); assay type: functional; conditions: route oral
Rattus norvegicus [5] = experiment: Percent change of arterial blood pressure in spontaneously hypertensive rats at the dose of 300 mg/kg (p.o.) after 6 hr (control BP(mm Hg)=214); assay type: functional; conditions: route oral
Rattus norvegicus [6] = experiment: Percent change of arterial blood pressure in spontaneously hypertensive rats at the dose of 30 mg/kg (p.o.) after […] (control BP(mm Hg)=210); assay type: functional; conditions: route oral
Rattus norvegicus [7] = experiment: Percent change of arterial blood pressure in spontaneously hypertensive rats at the dose of 30 mg/kg (p.o.) after 24 hr (control BP(mm Hg)=210); assay type: functional; conditions: route oral
Rattus norvegicus [8] = experiment: Percent change of arterial blood pressure in spontaneously hypertensive rats at the dose of 30 mg/kg (p.o.) after 6 hr (control BP(mm Hg)=210); assay type: functional; conditions: route oral
Rattus norvegicus [9] = experiment: Percent change of arterial blood pressure in spontaneously hypertensive rats at the dose of 100 mg/kg (p.o.) after […] (control BP(mm Hg)=206); assay type: functional; conditions: route oral
Rattus norvegicus [10] = experiment: Percent change of arterial blood pressure in spontaneously hypertensive rats at the dose of 100 mg/kg (p.o.) after 6 hr (control BP(mm Hg)=206); assay type: functional; conditions: route oral
Rattus norvegicus [11] = experiment: Percent change of arterial blood pressure in spontaneously hypertensive rats at the dose of 100 mg/kg (p.o.) after 24 hr (control BP(mm Hg)=206); assay type: functional; conditions: route oral

| SMILES | ED2 (Rattus norvegicus [1]) | ED2 (Rattus norvegicus [2]) | further results |
| --- | --- | --- | --- |
| CCOC(=O)COc1ccc(C(=O)c2ccc(CN)c(OC)c2)c(Cl)c1Cl.Cl | Not Active |  |  |
| CCOC(=O)COc1ccc(C(=O)c2ccc(CN)cc2)c(Cl)c1Cl.Cl | Not Active |  |  |
| CCOC(=O)COc1ccc(C(=O)c2ccc(O)c(CN3CCOCC3)c2)c(Cl)c1Cl.Cl | Not Active |  |  |
| CCOC(=O)COc1ccc(C(=O)c2ccc(O)c(CN)c2)c2ccccc12.Cl |  | 15 mg/kg |  |
| Br.CCOC(=O)COc1ccc(C(=O)c2ccc(CN)c(O)c2)c(Cl)c1Cl | Not Active |  |  |
| CCOC(=O)COc1ccc(C(=O)c2ccc(O)c(CN3CCS(=O)(=O)CC3)c2)c(Cl)c1Cl | Not Active |  |  |
| CCOC(=O)COc1ccc(C(=O)c2cc(CN3CCS(=O)(=O)CC3)c(O)c(CN3CCS(=O)(=O)CC3)c2)c(Cl)c1Cl | Not Active |  |  |
| Cl.NS(=O)(=O)c1cc(C(=O)O)c(NCc2ccco2)cc1Cl [FUROSEMIDE HYDROCHLORIDE] |  |  | Change (Rattus norvegicus [3]): -21%; Change (Rattus norvegicus [4]): -37%; Change (Rattus norvegicus [5]): -31%; Change (Rattus norvegicus [6]): -10%; Change (Rattus norvegicus [7]): 1%; Change (Rattus norvegicus [8]): -6%; Change (Rattus norvegicus [9]): -11%; Change (Rattus norvegicus [10]): -3%; Change (Rattus norvegicus [11]): -12% |
| CN(C)Cc1cc(C(=O)c2ccc(OCC(=O)O)c(Cl)c2Cl)cc(CN(C)C)c1O.Cl | Not Active |  |  |
| CCOC(=O)COc1ccc(C(=O)c2ccc(O)c(CNO)c2)c(Cl)c1Cl.Cl |  | 4 mg/kg |  |
| CCOC(=O)COc1ccc(C(=O)c2ccc3c(c2)CNC(=O)O3)c(Cl)c1Cl | Not Active |  |  |
| CCOC(=O)COc1ccc(C(=O)c2ccc(O)c(CN(C)C)c2)c(Cl)c1Cl.Cl |  | 16 mg/kg |  |
| CCOC(=O)COc1ccc(C(=O)c2ccc(O)c(C[N+](C)(C)C)c2)c(Cl)c1Cl.[Cl-] | Not Active |  |  |
| CCOC(=O)COc1ccc(C(=O)c2ccc(O)c(CN)c2)c(C)c1C.Cl |  | 6 mg/kg |  |
| CCOC(=O)COc1ccc(C(=O)c2cccc(CN)c2)c(Cl)c1Cl.Cl |  | 12 mg/kg |  |
| CCOC(=O)COc1ccc(C(=O)c2cc(Cl)c(O)c(CN)c2)c(Cl)c1Cl.Cl |  | 1 mg/kg |  |
| CCOC(=O)COc1ccc(C(=O)c2ccc(O)c(CN=C(N)N)c2)c(Cl)c1Cl |  | 34 mg/kg |  |
| CCOC(=O)COc1ccc(C(=O)c2ccc(O)c(CNC(C)=O)c2)c(Cl)c1Cl | Not Active |  |  |
| CCOC(=O)COc1ccc(C(=O)c2cc(C)c(O)c(CN)c2)c(Cl)c1Cl.Cl |  | 1 mg/kg |  |
| CCOC(=O)COc1ccc(C(=O)c2cc(CN3CCOCC3)c(O)c(CN3CCOCC3)c2)c(Cl)c1Cl.Cl | Not Active |  |  |
| CCOC(=O)COc1ccc(C(=O)c2ccc(O)c(CN)c2)cc1Cl.Cl |  | 5 mg/kg |  |
| CCOC(=O)COc1ccc(C(=O)c2ccc(O)c(CN3CCCC3)c2)c(Cl)c1Cl.Cl | Not Active |  |  |
| CCOC(=O)COc1ccc(C(=O)c2ccc(O)c(C(C)N)c2)c(Cl)c1Cl.Cl (stereo not given) |  | 1.2 mg/kg |  |
| CCOC(=O)COc1ccc(C(=O)c2cc(CN(CC)CC)c(O)c(CN(CC)CC)c2)c(Cl)c1Cl.Cl | Not Active |  |  |
| Cl.NCc1cc(C(=O)c2ccc(OCC(=O)O)c(Cl)c2Cl)ccc1O | Not Active |  |  |

Continued, in another order:

| ED2 (Rattus norvegicus [1]) | ED2 (Rattus norvegicus [2]) | SMILES | further results |
| --- | --- | --- | --- |
| Not Active |  | CCOC(=O)COc1ccc(C(=O)c2cc(CN3CCCCC3)c(O)c(CN3CCCCC3)c2)c(Cl)c1Cl.Cl |  |
| Not Active |  | CCOC(=O)COc1ccc(C(=O)c2ccc(O)c(C(N)=O)c2)c(Cl)c1Cl |  |
| Not Active |  | CCOC(=O)COc1ccc(C(=O)c2cccc(CN)c2O)c(Cl)c1Cl.Cl |  |
|  | 1 mg/kg | CCOC(=O)COc1ccc(C(=O)c2cc(I)c(O)c(CN)c2)c(Cl)c1Cl.Cl |  |
|  | 7 mg/kg | CCOC(=O)COc1ccc(C(=O)c2cc(CN(C)C)c(O)c(CN(C)C)c2)c(Cl)c1Cl.Cl |  |
|  | 5 mg/kg | CCOC(=O)COc1ccc(C(=O)c2ccc(O)c(CN)c2)c(Cl)c1.Cl |  |
|  | 11 mg/kg | CCOC(=O)COc1ccc(C(=O)c2cc(CN)c(O)c(CN)c2)c(Cl)c1Cl.Cl |  |
| Not Active |  | CCOC(=O)COc1ccc(C(=O)c2ccc(O)c(CN(CC)CC)c2)c(Cl)c1Cl.Cl |  |
|  | 50 mg/kg | CCOC(=O)COc1ccc(C(=O)c2ccc(Cl)c(CN)c2)c(Cl)c1Cl.Cl |  |
| Not Active |  | CN(C)Cc1cc(C(=O)c2ccc(OCC(=O)O)c(Cl)c2Cl)ccc1O |  |
| Not Active |  | CCOC(=O)COc1ccc(C(=O)c2ccc(O)c(CN3CCCCC3)c2)c(Cl)c1Cl.Cl |  |
| Not Active |  | Br.CCOC(=O)COc1ccc(C(=O)c2ccc(OC)c(CN)c2)c(Cl)c1Cl |  |
|  | 10 mg/kg | CCOC(=O)COc1ccc(C(=O)c2ccc(O)c(CN)c2)cc1.Cl |  |
| Not Active |  | CCOC(=O)COc1ccc(C(=O)c2ccc(O)c(C(=O)O)c2)c(Cl)c1Cl |  |
|  | 3 mg/kg | CCOC(=O)COc1ccc(C(=O)c2cc(CN)ccc2O)c(Cl)c1Cl.Cl |  |
| Not Active |  | CCOC(=O)COc1ccc(C(=O)c2cc(CN3CCCC3)c(O)c(CN3CCCC3)c2)c(Cl)c1Cl.Cl |  |
| Not Active |  | CCOC(=O)COc1ccc(C(=O)c2ccc(O)c(CO)c2)c(Cl)c1Cl |  |
